This note sets out measurements from patent US10212956B2, “Compositions and methods of treating edible matter and substrates therefor” (PIMI AGRO CLEANTECH LTD., priority 2010, dated 2019).

One test has as its system mandarin oranges. In words: Citrus decay during storage at 2° C. Type of test: in vivo. As to conditions: Mandarin Orange. The method, then:
Approximately 1000 mandarin oranges were treated shortly after harvest with compositions comprising performic acid, water, or an Imazalil composition, and then stored at 2° C. After 22 days, the number of rotten fruits, and the percent decay were assessed. A second trial was conducted with ten tons of mandarin oranges treated with a performic acid composition or Imazalil and stored and then stored at 2° C. The study was repeated with Red Grapefruit. The compositions comprising performic acid and the manner of applying the compositions varied throughout the course of the study within the parameters summarized in Table 6.
The compositions were applied to the citrus at room temperature with a fine spray of the performic acid containing composition and then treated either a) with a drain wash of water (either cold or heated to 55° C.) with a 1:9 dilution in tap water of the composition without formic acid, orb) with a drain wash of water (either cold or heated to 55° C.), followed by a fine spray at room temperature with a formulation identical to the performic acid formulation but without formic acid. Thus, the methods of applying in this study were: • a. Application of the performic acid containing composition at room temperature with fine spray, then treatment with a drain wash of cold water, and then a fine spray at room temperature with a formula without formic acid (i.e. without the performic acid source) • b. Application of the performic acid containing composition at room temperature with fine spray, then treatment with a drain wash of heated water (to about 55° C.), and then a fine spray at room temperature with a formula without formic acid • c. Application of the performic acid containing composition at room temperature with fine spray and then treatment with a drain wash of cold water that contained the formula at a diluted state at a ratio of 1:9 but without formic acid • d. Application of the performic acid containing composition at room temperature with fine spray and then treatment with a drain wash of heated water (to about 55° C.) that contained the formula at a diluted state at a ratio of 1:9 but without formic acid
All treatments were conducted at a total rate of 5-20 liter of formula per ton of different Citrus varieties.

Test [1] relates to Aspergillus niger (ATCC 16404). In words: BS EN 1650:1998 quantitative suspension test, fungicidal activity. Format: cell-based. As to conditions: 300 ppm; same test conditions (1 minute, 20° C., dirty conditions). As for the experimental part:
(§1) This is a quantitative suspension test to evaluate the activity of chemical disinfectants and antiseptics used in food, industrial, domestic and institutional areas against fungi, yeasts and molds. The same composition tested in Example 22 was tested in this case as well.
(§2) As is known in the art, EN 1650 specifies a test method and the minimum requirements for anti-fungal, anti-yeast and anti-mold activity of chemical disinfectant and antiseptic products that form a homogeneous, physically stable preparation in hard water and that are used in food, industrial, domestic and institutional areas, excluding areas and situations where disinfection is medically indicated and excluding products used on living tissues except those for hand hygiene in the above-considered areas. […]
(§3) A test suspension of yeast cells and/or mold spores in a solution of interfering substance (bovine albumin, 3 g/l) was added to a prepared sample of the product under test diluted in hard water. […] (If a suitable neutralizer could be found, membrane filtration was used.) The number of surviving fungi, yeast cells or mold spores in each sample was determined and the reduction in viable counts was calculated. […]

The subject of test [2] is Penecillium w.t. (wild type). The description is as above. Type of test: cell-based. As to conditions: 300 ppm; same test conditions (1 minute, 20° C., dirty conditions). The method, then: as §1, §2, §3

`C=CCOC(Cn1ccnc1)c1ccc(Cl)cc1Cl` (stereo not drawn) [Imazalil]: in the test with mandarin oranges (22 days after treatment), the “% Decay” value is reported as 6.8% and the “No. Rotten Fruits” value is 59. For the same molecule, in the test on mandarin oranges (46 days after treatment), the “% Decay” value is recorded as 1.75% and the “No. Rotten Fruits” value was found to be 125.
As for `CC(=O)OO` [peracetic acid], the “compliance with EN 1650” value in test [1] and in test [2] was “did not meet the standard” throughout.
